{
  "source": "paper PMC4730117",
  "about": "“In vitro Biochemical Characterization of All Barley Endosperm Starch Synthases” (Frontiers in Plant Science, 2016)",
  "assay_in_all_cases": "glycan microarray on nitrocellulose, anti-His detection",
  "key": {"[1]": {"molecular_target": "T1, HvSSIIa (Hordeum vulgare, UniProt Q8H1Y8)", "T1 construct": "without predicted chloroplast transit peptide, N-terminal His-tag, codon-optimised, E. coli", "T1 sequence (Q8H1Y8 61-802)": "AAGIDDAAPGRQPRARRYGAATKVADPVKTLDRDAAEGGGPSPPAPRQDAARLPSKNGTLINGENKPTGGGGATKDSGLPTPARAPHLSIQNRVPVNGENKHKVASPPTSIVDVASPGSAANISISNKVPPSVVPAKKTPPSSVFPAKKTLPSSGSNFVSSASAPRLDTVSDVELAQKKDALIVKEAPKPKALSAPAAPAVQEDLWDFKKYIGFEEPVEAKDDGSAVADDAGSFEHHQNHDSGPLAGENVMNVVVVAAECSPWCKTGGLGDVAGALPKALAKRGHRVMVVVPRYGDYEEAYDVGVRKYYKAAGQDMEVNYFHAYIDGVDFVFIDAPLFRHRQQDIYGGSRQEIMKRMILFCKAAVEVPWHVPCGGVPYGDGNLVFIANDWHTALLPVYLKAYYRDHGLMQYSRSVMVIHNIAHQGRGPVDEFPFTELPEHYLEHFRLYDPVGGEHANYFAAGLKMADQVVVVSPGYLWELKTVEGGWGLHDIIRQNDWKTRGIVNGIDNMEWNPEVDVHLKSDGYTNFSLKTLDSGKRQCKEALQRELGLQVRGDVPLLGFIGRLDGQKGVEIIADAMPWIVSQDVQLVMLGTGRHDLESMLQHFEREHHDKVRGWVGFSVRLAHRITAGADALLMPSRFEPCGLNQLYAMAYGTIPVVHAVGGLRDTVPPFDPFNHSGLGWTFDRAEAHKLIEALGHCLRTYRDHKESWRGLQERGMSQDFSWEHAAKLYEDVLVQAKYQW", "conditions": "protein 30 μg/mL in PBS with 5% milk powder; printed oligosaccharide; strong binding"}, "[2]": {"molecular_target": "T2, CBM53-3 (Hordeum vulgare, UniProt G1FUP7)", "T2 construct": "third CBM53 domain of HvSSIIIa only, C-terminal His-tag, vector pET151, E. coli; borders only in supplement", "T2 sequence (G1FUP7 entry or part of it)": "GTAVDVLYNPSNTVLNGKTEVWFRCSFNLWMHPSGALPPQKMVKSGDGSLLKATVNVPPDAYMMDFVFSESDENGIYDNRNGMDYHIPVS", "conditions": "protein 30 μg/mL in PBS with 5% milk powder; printed oligosaccharide; strong binding"}, "[3]": {"molecular_target": "T3, HvSSIV (Hordeum vulgare, UniProt F2CUZ5)", "T3 construct": "without predicted chloroplast transit peptide, C-terminal His-tag, codon-optimised, E. coli", "T3 sequence (F2CUZ5 49-914)": "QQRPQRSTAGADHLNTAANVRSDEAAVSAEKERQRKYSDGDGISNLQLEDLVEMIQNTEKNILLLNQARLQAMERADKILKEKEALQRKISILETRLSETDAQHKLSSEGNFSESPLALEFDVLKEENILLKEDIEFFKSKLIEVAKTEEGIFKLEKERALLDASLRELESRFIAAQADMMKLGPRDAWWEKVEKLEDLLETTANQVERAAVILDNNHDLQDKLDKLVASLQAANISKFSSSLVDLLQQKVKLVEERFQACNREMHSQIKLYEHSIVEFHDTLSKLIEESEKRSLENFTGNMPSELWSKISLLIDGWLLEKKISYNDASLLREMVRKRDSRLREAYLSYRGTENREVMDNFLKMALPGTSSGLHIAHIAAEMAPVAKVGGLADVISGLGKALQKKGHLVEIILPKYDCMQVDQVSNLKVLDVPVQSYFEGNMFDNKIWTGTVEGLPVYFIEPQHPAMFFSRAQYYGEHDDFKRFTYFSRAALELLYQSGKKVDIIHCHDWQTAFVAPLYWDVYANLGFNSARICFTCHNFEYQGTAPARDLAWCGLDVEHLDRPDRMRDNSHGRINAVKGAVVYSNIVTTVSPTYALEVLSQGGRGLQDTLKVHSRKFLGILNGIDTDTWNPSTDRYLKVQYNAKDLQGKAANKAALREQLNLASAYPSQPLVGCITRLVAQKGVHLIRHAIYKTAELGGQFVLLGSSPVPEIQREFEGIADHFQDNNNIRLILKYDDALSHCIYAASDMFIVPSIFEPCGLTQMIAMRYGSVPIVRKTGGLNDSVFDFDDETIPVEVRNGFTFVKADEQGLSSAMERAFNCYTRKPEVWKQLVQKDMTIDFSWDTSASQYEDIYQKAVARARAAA", "conditions": "protein 30 μg/mL in PBS with 5% milk powder; printed oligosaccharide; strong binding"}, "[4]": {"molecular_target": "T4, HvGBSSI (Hordeum vulgare, UniProt P09842)", "T4 construct": "gene WAXY; without predicted chloroplast transit peptide, N-terminal His-tag, codon-optimised, E. coli", "T4 sequence (P09842 71-603)": "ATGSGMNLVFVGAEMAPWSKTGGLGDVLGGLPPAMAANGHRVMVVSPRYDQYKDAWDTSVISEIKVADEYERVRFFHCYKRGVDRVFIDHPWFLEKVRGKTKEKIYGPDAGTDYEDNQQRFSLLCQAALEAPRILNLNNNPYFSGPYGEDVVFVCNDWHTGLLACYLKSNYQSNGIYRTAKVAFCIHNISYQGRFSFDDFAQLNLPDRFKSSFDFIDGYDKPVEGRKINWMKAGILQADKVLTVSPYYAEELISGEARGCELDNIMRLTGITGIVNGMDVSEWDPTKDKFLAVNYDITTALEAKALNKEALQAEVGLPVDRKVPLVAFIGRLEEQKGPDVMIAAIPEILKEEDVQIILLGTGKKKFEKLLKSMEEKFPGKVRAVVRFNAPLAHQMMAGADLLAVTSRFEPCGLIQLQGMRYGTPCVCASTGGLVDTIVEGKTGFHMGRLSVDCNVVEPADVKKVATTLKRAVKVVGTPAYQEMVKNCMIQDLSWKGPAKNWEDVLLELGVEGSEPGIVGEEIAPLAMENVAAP", "conditions": "protein 30 μg/mL in PBS with 5% milk powder; printed oligosaccharide; weaker binding"}},
  "data": [
    {"smiles": "O=P(O)(O)O[C@H]1[C@H](O[C@H]2O[C@H](CO)[C@@H](O)[C@H](O)[C@H]2O)[C@@H](CO)OC(O)[C@@H]1O", "note": "(stereo partly shown) [3-phosphomaltose]", "values": [
      {"measurement": "glycan microarray on nitrocellulose, anti-His detection", "setting": "[1]", "value": "SSIIa, CBM53-3, and SSIV all showed strong binding to 3-phosphomaltose"},
      {"measurement": "glycan microarray on nitrocellulose, anti-His detection", "setting": "[2]", "value": "SSIIa, CBM53-3, and SSIV all showed strong binding to 3-phosphomaltose"},
      {"measurement": "glycan microarray on nitrocellulose, anti-His detection", "setting": "[3]", "value": "SSIIa, CBM53-3, and SSIV all showed strong binding to 3-phosphomaltose"},
      {"measurement": "glycan microarray on nitrocellulose, anti-His detection", "setting": "[4]", "value": "while GBSSI showed weaker binding and binding was non-detectable for SSI"}
    ]}
  ]
}
